Results as given in ChEMBL document CHEMBL3046607, “Synthesis and Herbicidal Activity of New 1-Alkyl-3-aryloxypyrazole-4-carboxamide Derivatives” (J Pestic Sci, 2004).
Activity calls are given as the source filed them. The rule behind the calls is not given here.

How the values were obtained:
[1] = system: Echinochloa oryzicola; experiment: Pre-emergence herbicidal activity against Echinochloa oryzicola at 500 g a.i/ha measured after 14 days; type: functional, organism-based
[2] = system: Cyperus difformis; experiment: Pre-emergence herbicidal activity against Cyperus difformis at 500 g a.i/ha measured after 14 days; type: functional, organism-based
[3] = system: Rotala indica; experiment: Post-emergence herbicidal activity against Rotala indica assessed as bleaching of stem/leaf parts; type: functional, organism-based
[4] = system: Oryza sativa; experiment: Phytotoxicity against Oryza sativa cv. Koshihikari (rice) at 500 g a.i/ha measured after 14 days; type: organism-based; details: in vivo, 336 h
[5] = system: Elatine triandra; experiment: Post-emergence herbicidal activity against Elatine triandra assessed as bleaching of stem/leaf parts; type: functional, organism-based; also: test concentration or dose not given here
[6] = system: Rotala indica; experiment: Pre-emergence herbicidal activity against Rotala indica at 500 g a.i/ha measured after 14 days; type: functional, organism-based
[7] = system: Cyperus difformis; experiment: Pre-emergence herbicidal activity against Cyperus difformis assessed as bleaching of stem/leaf parts; type: functional, organism-based
[8] = system: Ammannia multiflora; experiment: Post-emergence herbicidal activity against Ammannia multiflora assessed as bleaching of stem/leaf parts; type: functional, organism-based
[9] = system: Lindernia procumbens; experiment: Pre-emergence herbicidal activity against Lindernia procumbens at 500 g a.i/ha measured after 14 days; type: functional, organism-based
[10] = system: Elatine triandra; experiment: Pre-emergence herbicidal activity against Elatine triandra at 500 g a.i/ha measured after 14 days; type: functional, organism-based
[11] = system: Pontederia vaginalis; experiment: Pre-emergence herbicidal activity against Monochoria vaginalis at 500 g a.i/ha measured after 14 days; type: functional, organism-based
[12] = system: Lindernia procumbens; experiment: Post-emergence herbicidal activity against Lindernia procumbens assessed as bleaching of stem/leaf parts; type: functional, organism-based; also: test concentration or dose not given here
[13] = system: Echinochloa oryzicola; experiment: Post-emergence herbicidal activity against Echinochloa oryzicola assessed as bleaching of stem/leaf parts; type: functional, organism-based
[14] = system: Ammannia multiflora; experiment: Pre-emergence herbicidal activity against Ammannia multiflora assessed as bleaching of stem/leaf parts; type: functional, organism-based
[15] = system: Elatine triandra; experiment: Pre-emergence herbicidal activity against Elatine triandra assessed as bleaching of stem/leaf parts; type: functional, organism-based
[16] = system: Schoenoplectiella juncoides; experiment: Post-emergence herbicidal activity against Schoenoplectiella juncoides assessed as bleaching of stem/leaf parts; type: functional, organism-based; also: test concentration or dose not given here
[17] = system: Rotala indica; experiment: Pre-emergence herbicidal activity against Rotala indica assessed as bleaching of stem/leaf parts; type: functional, organism-based
[18] = system: Ammannia multiflora; experiment: Pre-emergence herbicidal activity against Ammannia multiflora at 500 g a.i/ha measured after 14 days; type: functional, organism-based
[19] = system: Schoenoplectiella juncoides; experiment: Pre-emergence herbicidal activity against Schoenoplectiella juncoides at 500 g a.i/ha measured after 14 days; type: functional, organism-based
[20] = system: Pontederia vaginalis; experiment: Pre-emergence herbicidal activity against Monochoria vaginalis assessed as bleaching of stem/leaf parts; type: functional, organism-based
[21] = system: Pontederia vaginalis; experiment: Post-emergence herbicidal activity against Monochoria vaginalis assessed as bleaching of stem/leaf parts; type: functional, organism-based
[22] = system: Echinochloa oryzicola; experiment: Pre-emergence herbicidal activity against Echinochloa oryzicola assessed as bleaching of stem/leaf parts; type: functional, organism-based
[23] = system: Cyperus difformis; experiment: Post-emergence herbicidal activity against Cyperus difformis assessed as bleaching of stem/leaf parts; type: functional, organism-based; also: test concentration or dose not given here
[24] = system: Schoenoplectiella juncoides; experiment: Pre-emergence herbicidal activity against Schoenoplectiella juncoides assessed as bleaching of stem/leaf parts; type: functional, organism-based
[25] = system: Lindernia procumbens; experiment: Pre-emergence herbicidal activity against Lindernia procumbens assessed as bleaching of stem/leaf parts; type: functional, organism-based
[26] = system: Pontederia vaginalis; experiment: Pre-emergence herbicidal activity against Monochoria vaginalis at 33 g a.i/ha measured after 14 days; type: functional, organism-based
[27] = system: Rotala indica; experiment: Pre-emergence herbicidal activity against Rotala indica at 33 g a.i/ha measured after 14 days; type: functional, organism-based
[28] = system: Lindernia procumbens; experiment: Pre-emergence herbicidal activity against Lindernia procumbens at 33 g a.i/ha measured after 14 days; type: functional, organism-based
[29] = system: Schoenoplectiella juncoides; experiment: Pre-emergence herbicidal activity against Schoenoplectiella juncoides at 33 g a.i/ha measured after 14 days; type: functional, organism-based
[30] = system: Elatine triandra; experiment: Pre-emergence herbicidal activity against Elatine triandra at 33 g a.i/ha measured after 14 days; type: functional, organism-based
[31] = system: Cyperus difformis; experiment: Pre-emergence herbicidal activity against Cyperus difformis at 33 g a.i/ha measured after 14 days; type: functional, organism-based
[32] = system: Echinochloa oryzicola; experiment: Pre-emergence herbicidal activity against Echinochloa oryzicola at 33 g a.i/ha measured after 14 days; type: functional, organism-based
[33] = system: Ammannia multiflora; experiment: Pre-emergence herbicidal activity against Ammannia multiflora at 33 g a.i/ha measured after 14 days; type: functional, organism-based
[34] = system: Oryza sativa; experiment: Phytotoxicity against Oryza sativa cv. Koshihikari (rice) at 33 g a.i/ha measured after 14 days; type: organism-based; details: in vivo, 336 h

Cn1cc(C(=O)NC2CC2)c(Oc2cccc(C(F)(F)F)c2)n1
Activity [1]: inactive | Activity [2]: inactive | Activity [3]: Active | Activity [4]: Non-toxic | Activity [5]: Active | Activity [6]: inactive | Activity [7]: Active | Activity [8]: Active | Activity [9]: inactive | Activity [10]: inactive | Activity [11]: inactive | Activity [12]: Active | Activity [13]: Active | Activity [14]: Active | Activity [15]: Active | Activity [16]: Active | Activity [17]: Active | Activity [18]: inactive | Activity [19]: inactive | Activity [20]: Active | Activity [21]: Active | Activity [22]: Active | Activity [23]: Active | Activity [24]: Active | Activity [25]: Active

CCCCNC(=O)c1cn(C)nc1Oc1cccc(C(F)(F)F)c1
Activity [1]: inactive | Activity [2]: inactive | Activity [3]: Active | Activity [4]: Non-toxic | Activity [5]: Active | Activity [6]: inactive | Activity [7]: Active | Activity [8]: Active | Activity [9]: inactive | Activity [10]: inactive | Activity [11]: inactive | Activity [12]: Active | Activity [13]: Active | Activity [14]: Active | Activity [15]: Active | Activity [16]: Active | Activity [17]: Active | Activity [18]: inactive | Activity [19]: inactive | Activity [20]: Active | Activity [21]: Active | Activity [22]: Active | Activity [23]: Active | Activity [24]: Active | Activity [25]: Active

Cn1cc(C(=O)Nc2ccc(F)cc2F)c(Oc2cc(C(F)(F)F)ccn2)n1
Activity [1]: inactive | Activity [2]: inactive | Activity [3]: Active | Activity [4]: Non-toxic | Activity [5]: Active | Activity [6]: inactive | Activity [7]: Active | Activity [8]: Active | Activity [9]: inactive | Activity [10]: inactive | Activity [11]: inactive | Activity [12]: Active | Activity [13]: Active | Activity [14]: Active | Activity [15]: Active | Activity [16]: Active | Activity [17]: Active | Activity [18]: inactive | Activity [19]: inactive | Activity [20]: Active | Activity [21]: Active | Activity [22]: Active | Activity [23]: Active | Activity [24]: Active | Activity [25]: Active

Cn1cc(NC(=O)c2ccc(F)cc2F)c(OCc2cccc(C(F)(F)F)c2)n1
Activity [1]: Active | Activity [2]: Active | Activity [3]: Active | Activity [4]: Non-toxic | Activity [5]: Active | Activity [6]: Active | Activity [7]: Active | Activity [8]: Active | Activity [9]: Active | Activity [10]: Active | Activity [11]: Active | Activity [12]: Active | Activity [13]: Active | Activity [14]: Active | Activity [15]: Active | Activity [16]: Active | Activity [17]: Active | Activity [18]: Active | Activity [19]: Active | Activity [20]: Active | Activity [21]: Active | Activity [22]: Active | Activity [23]: Active | Activity [24]: Active | Activity [25]: Active

CC(NC(=O)c1cn(C)nc1Oc1cccc(C(F)(F)F)c1)c1ccccc1 (stereo not given)
Activity [1]: inactive | Activity [2]: inactive | Activity [3]: Active | Activity [4]: Non-toxic | Activity [5]: Active | Activity [6]: inactive | Activity [7]: Active | Activity [8]: Active | Activity [9]: inactive | Activity [10]: inactive | Activity [11]: inactive | Activity [12]: Active | Activity [13]: Active | Activity [14]: Active | Activity [15]: Active | Activity [16]: Active | Activity [17]: Active | Activity [18]: inactive | Activity [19]: inactive | Activity [20]: Active | Activity [21]: Active | Activity [22]: Active | Activity [23]: Active | Activity [24]: Active | Activity [25]: Active

O=C(Nc1ccc(F)cc1F)c1cn(CCF)nc1Oc1cccc(C(F)(F)F)c1
Activity [26]: inactive | Activity [3]: Active | Activity [5]: Active | Activity [27]: inactive | Activity [7]: Active | Activity [8]: Active | Activity [12]: Active | Activity [13]: Active | Activity [14]: Active | Activity [28]: inactive | Activity [29]: inactive | Activity [30]: inactive | Activity [15]: Active | Activity [16]: Active | Activity [17]: Active | Activity [31]: inactive | Activity [32]: inactive | Activity [33]: inactive | Activity [34]: Non-toxic | Activity [20]: Active | Activity [21]: Active | Activity [22]: Active | Activity [23]: Active | Activity [24]: Active | Activity [25]: Active

Cc1ccccc1NC(=O)c1cn(C)nc1Oc1cccc(C(F)(F)F)c1
Activity [26]: Active | Activity [3]: Active | Activity [5]: Active | Activity [27]: Active | Activity [7]: Active | Activity [8]: Active | Activity [12]: Active | Activity [13]: Active | Activity [14]: Active | Activity [28]: Active | Activity [29]: inactive | Activity [30]: Active | Activity [15]: Active | Activity [16]: Active | Activity [17]: Active | Activity [31]: Active | Activity [32]: inactive | Activity [33]: Active | Activity [34]: Non-toxic | Activity [20]: Active | Activity [21]: Active | Activity [22]: Active | Activity [23]: Active | Activity [24]: Active | Activity [25]: Active

Cn1cc(C(=O)Nc2ccccc2F)c(Oc2cccc(C(F)(F)F)c2)n1
Activity [26]: Active | Activity [3]: Active | Activity [5]: Active | Activity [27]: Active | Activity [7]: Active | Activity [8]: Active | Activity [12]: Active | Activity [13]: Active | Activity [14]: Active | Activity [28]: Active | Activity [29]: inactive | Activity [30]: Active | Activity [15]: Active | Activity [16]: Active | Activity [17]: Active | Activity [31]: Active | Activity [32]: Active | Activity [33]: Active | Activity [34]: Non-toxic | Activity [20]: Active | Activity [21]: Active | Activity [22]: Active | Activity [23]: Active | Activity [24]: Active | Activity [25]: Active

Cn1cc(C(=O)Nc2ccccc2Cl)c(Oc2cccc(C(F)(F)F)c2)n1
Activity [26]: Active | Activity [3]: Active | Activity [5]: Active | Activity [27]: Active | Activity [7]: Active | Activity [8]: Active | Activity [12]: Active | Activity [13]: Active | Activity [14]: Active | Activity [28]: Active | Activity [29]: Active | Activity [30]: Active | Activity [15]: Active | Activity [16]: Active | Activity [17]: Active | Activity [31]: Active | Activity [32]: Active | Activity [33]: Active | Activity [34]: Non-toxic | Activity [20]: Active | Activity [21]: Active | Activity [22]: Active | Activity [23]: Active | Activity [24]: Active | Activity [25]: Active
